# Results from patent US9708259B2 (Hoffmann-La Roche Inc., priority 2013, dated 2017).
# Positions count from the first letter of the chain named. Where two headings read alike, the source gives them in different places.
# What was measured:
# human M1 = target: T1, human M1 (Homo sapiens, UniProt P11229); assay: M1 PAM assay (FLIPR intracellular calcium), human M1; assay type: cell-based
# T1 construct: expressed in transfected cells; host or cells: CHO cells
# T1 sequence (P11229 1-460): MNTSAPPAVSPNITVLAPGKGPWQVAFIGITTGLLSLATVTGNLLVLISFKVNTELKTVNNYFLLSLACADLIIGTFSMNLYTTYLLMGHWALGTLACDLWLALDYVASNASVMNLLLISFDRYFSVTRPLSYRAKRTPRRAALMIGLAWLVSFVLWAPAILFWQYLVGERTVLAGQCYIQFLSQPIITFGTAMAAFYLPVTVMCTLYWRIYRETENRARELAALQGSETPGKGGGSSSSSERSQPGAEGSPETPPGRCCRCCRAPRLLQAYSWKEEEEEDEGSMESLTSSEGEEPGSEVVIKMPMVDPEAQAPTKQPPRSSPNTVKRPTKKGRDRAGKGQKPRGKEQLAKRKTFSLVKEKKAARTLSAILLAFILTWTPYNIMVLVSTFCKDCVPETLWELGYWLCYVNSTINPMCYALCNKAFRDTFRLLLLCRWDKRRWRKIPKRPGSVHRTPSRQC
# Procedure, shortened: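 CHO cells expressing M1, Fluo-4AM-loaded, in HEPES/probenecid HBSS pH 7.4, 1% DMSO final. Compounds pre-incubated 2 min for agonist activity versus 30 nM acetylcholine control. For PAM activity, acetylcholine EC20 added after the 2 min pre-incubation, then 2 min more before FLIPR intracellular Ca2+ read.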
# ratM1 = target: T2, ratM1 (Rattus norvegicus, UniProt P08482); assay: M1 PAM assay (FLIPR intracellular calcium), rat M1; assay type: cell-based
# T2 construct: expressed in transfected cells; host or cells: CHO cells (stated generally for the assay, not specifically for rat M1)
# T2 sequence (P08482 1-460): T1 sequence (P11229 1-460) with A5V, T254S, P309S, R320K, A337G, I413V
# [1] = CHO human M1 cells, FLIPR Ca2+, with EC20 of acetylcholine, first value of the cell, read-out: hM1 EC50
# [2] = rat M1, FLIPR Ca2+, second value of the cell, read-out: ratM1 EC50
Compound,EC50 (human M1) [nM],EC50 (ratM1) [nM],EC50 (human M1; [1]) [nM],EC50 (ratM1; [2]) [nM]
"COc1ccc(Cn2cc(C(=O)N[C@H]3CCCC[C@@H]3O)c3c(F)cccc32)cc1 [Example 31, 4-fluoro-N-((1S,2S)-2-hydroxycyclohexyl)-1-(4-methoxybenzyl)-1H-indole-3-carboxamide]",90.6,160,–,–
"Cc1cn(-c2ccc(Cn3cc(C(=O)N[C@H]4CCOC[C@@H]4O)c4c(F)cccc43)cc2)cn1 (single isomer, unassigned) [Example 51, 4-fluoro-N-((3R,4S) or (3S,4R)-3-hydroxytetrahydro-2H-pyran-4-yl)-1-(4-(4-methyl-1H-imidazol-1-yl)benzyl)-1H-indole-3-carboxamide]",–,–,12.3,11.2
"CNC(=O)c1ccc(Cn2cc(C(=O)NC3CCCC(F)(F)C3)c3c(F)cccc32)cc1 (stereo not shown) [Example 118, N-(3,3-difluorocyclohexyl)-4-fluoro-1-[[4-(methylcarbamoyl)phenyl]methyl]indole-3-carboxamide]",–,–,9,29
"COc1ccc(F)c2c(C(=O)NC3CCOCC3)cn(Cc3ccc(-c4cnn(C)c4)cc3F)c12 [Example 152, 4-fluoro-1-(2-fluoro-4-(1-methyl-1H-pyrazol-4-yl)benzyl)-7-methoxy-N-(tetrahydro-2H-pyran-4-yl)-1H-indole-3-carboxamide]",–,–,260,609
"Cc1ccc(F)c2c(C(=O)NC3CCOCC3)cn(Cc3ccc(-c4cnn(C)c4)cc3F)c12 [Example 133, 4-fluoro-1-(2-fluoro-4-(1-methyl-1H-pyrazol-4-yl)benzyl)-7-methyl-N-(tetrahydro-2H-pyran-4-yl)-1H-indole-3-carboxamide]",–,–,48,84
"CNC(=O)c1ccc(Cn2cc(C(=O)NC3CCCCC3F)c3c(F)cccc32)cc1F (stereo not shown) [Example 129, 4-fluoro-1-(3-fluoro-4-(methylcarbamoyl)benzyl)-N-(2-fluorocyclohexyl)-1H-indole-3-carboxamide]",–,–,27,66
"O=C(N[C@H]1CCCC[C@@H]1O)c1cn(Cc2ccc(-c3ccno3)cc2)c2cccc(F)c12 [Example 138, 4-fluoro-N-((1S,2S)-2-hydroxycyclohexyl)-1-(4-(isoxazol-5-yl)benzyl)-1H-indole-3-carboxamide]",–,–,16,38
"O=C(N[C@H]1CCCC[C@@H]1O)c1cn(Cc2ccc(-c3ccn[nH]3)cc2)c2cccc(F)c12 [Example 155, 1-(4-(1H-Pyrazol-5-yl)benzyl)-4-fluoro-N-((1S,2S)-2-hydroxycyclohexyl)-1H-indole-3-carboxamide]",–,–,11,5
"NC(=O)Cc1ccc(Cn2cc(C(=O)N[C@H]3CCCC[C@@H]3O)c3c(F)cccc32)cc1 [Example 80, 1-(4-(2-amino-2-oxoethyl)benzyl)-4-fluoro-N-((1S,2S)-2-hydroxycyclohexyl)-1H-indole-3-carboxamide]",–,–,110,263
"Cn1cc(-c2ccc(Cn3cc(C(=O)N[C@@H]4C[C@@H]5CC[C@H]4O5)c4c(F)cccc43)c(F)c2)cn1 (relative stereo) [Example 104, N-((endo)-7-oxabicyclo[2.2.1]heptan-2-yl)-4-fluoro-1-(2-fluoro-4-(1-methyl-1H-pyrazol-4-yl)benzyl)-1H-indole-3-carboxamide]",–,–,165,196
"Cn1cc(-c2ccc(Cn3nc(C(=O)N[C@@H]4CCCC[C@H]4O)c4c(F)cccc43)c(F)c2)cn1 [Example 4, 4-fluoro-1-(2-fluoro-4-(1-methyl-1H-pyrazol-4-yl)benzyl)-N-((1R,2R)-2-hydroxycyclohexyl)-1H-indazole-3-carboxamide]",–,–,295,1290
"CNC(=O)c1ccc(Cn2cc(C(=O)N[C@H]3CCCC[C@@H]3O)c3c(F)cccc32)c(F)c1 [Example 86, 4-fluoro-1-(2-fluoro-4-(methylcarbamoyl)benzyl)-N-((1S,2S)-2-hydroxycyclohexyl)-1H-indole-3-carboxamide]",–,–,6.91,13
"CNC(=O)c1ccc(Cn2cc(C(=O)NC3CCOCC3C)c3c(F)cccc32)cc1 (stereo not shown) [Example 126, 4-fluoro-1-[[4-(methylcarbamoyl)phenyl]methyl]-N-(3-methyloxan-4-yl)indole-3-carboxamide]",–,–,19,51
"O=C(N[C@H]1CCCC[C@@H]1O)c1cn(Cc2ccc(Cl)cc2)c2cccc(F)c12 [Example 38, 1-(4-chlorobenzyl)-4-fluoro-N-((1S,2S)-2-hydroxycyclohexyl)-1H-indole-3-carboxamide]",131,382,–,–
"Cn1cc(-c2ccc(Cn3cc(C(=O)N[C@H]4CCCC(F)(F)[C@@H]4O)c4c(F)cccc43)c(F)c2)cn1 [Example 103, N-((1S,2R)-3,3-difluoro-2-hydroxycyclohexyl)-4-fluoro-1-(2-fluoro-4-(1-methyl-1H-pyrazol-4-yl)benzyl)-1H-indole-3-carboxamide]",–,–,7,32
"CCc1ccc(F)c2c(C(=O)N[C@H]3CCOC[C@@H]3O)cn(Cc3ccc(-c4cnn(C)c4)cc3)c12 [Example 109, 7-ethyl-4-fluoro-N-((3R,4S)-3-hydroxytetrahydro-2H-pyran-4-yl)-1-(4-(1-methyl-1H-pyrazol-4-yl)benzyl)-1H-indole-3-carboxamide]",–,–,61,79
"Cn1cc(-c2ccc(Cn3cc(C(=O)N[C@H]4CCCC[C@@H]4O)c4c(F)cccc43)cn2)cn1 [Example 30, 4-fluoro-N-((1S,2S)-2-hydroxycyclohexyl)-1-((6-(1-methyl-1H-pyrazol-4-yl)pyridine-3-yl)methyl)-1H-indole-3-carboxamide]",–,–,13.2,14.1
"O=C(N[C@H]1CCCC[C@@H]1O)c1cn(Cc2ccc(-c3nc[nH]n3)cc2)c2cccc(F)c12 [Example 156, 1-(4-(1H-1,2,4-triazol-3-yl)benzyl)-4-fluoro-N-((1S,2S)-2-hydroxycyclohexyl)-1H-indole-3-carboxamide]",–,–,3,10
"O=C(N[C@H]1CCCC[C@@H]1O)c1cn(Cc2ccc(-c3ccccc3)nc2)c2cccc(F)c12 [Example 131, 4-fluoro-N-((1S,2S)-2-hydroxycyclohexyl)-1-((6-phenylpyridin-3-yl)methyl)-1H-indole-3-carboxamide]",–,–,36,152
"Cn1cc(-c2ccc(Cn3cc(C(=O)N[C@H]4CCOC[C@@H]4O)c4c(F)ccc(C5CC5)c43)cc2)cn1 [Example 106, 7-cyclopropyl-4-fluoro-N-((3R,4S)-3-hydroxytetrahydro-2H-pyran-4-yl)-1-(4-(1-methyl-1H-pyrazol-4-yl)benzyl)-1H-indole-3-carboxamide]",–,–,189,187
"Cn1cc(-c2ccc(Cn3cc(C(=O)NC4CCCOC4)c4c(F)cccc43)cc2)cn1 (stereo not shown) [Example 12, 4-fluoro-1-(4-(1-methyl-1H-pyrazol-4-yl)benzyl)-N-(tetrahydro-2H-pyran-3-yl)-1H-indole-3-carboxamide]",–,–,129,398
"CNC(=O)c1ccc(Cn2cc(C(=O)NC)c3c(F)cccc32)cc1 [Example 110, 4-fluoro-N-methyl-1-[[4-(methylcarbamoyl)phenyl]methyl]indole-3-carboxamide]",–,–,141,482
"CNC(=O)c1ccc(Cn2cc(C(=O)NC3CCCOC3)c3c(F)cccc32)cc1 (stereo not shown) [Example 122, 4-fluoro-1-[[4-(methylcarbamoyl)phenyl]methyl]-N-(oxan-3-yl)indole-3-carboxamide]",–,–,62,154
